Data on four compounds can be found in patent US20170290886A1, “TREATMENT OF NEURODEVELOPMENTAL DISORDERS” (Academia Sinica, priority 2016, published 2017).

Common to all, as to format: in vivo, rat
The subject of data set [1] is MeCP2 phosphorylation at Ser-421. In words: MeCP2 phosphorylation at Ser-421 in CA1 area (western blot). The following applies: 1 hr. How it is done: (§1) The E3 SUMO-protein ligase PIAS1, MeCP2, Flag, V5 and Myc, the clarified lysate (0.5 mg) was immunoprecipitated by mixed with 0.5 μl of anti-PIAS1 antibody (Catalog No. 2474-1, Epitomics, Burlingame, Calif.), 2 μl of anti-MeCP2 antibody (Catalog No. 3456, Cell Signaling, Danvers, Mass.), 2 μl of anti-Flag M2 antibody (Catalog No. F1804, Sigma-Aldrich, St. Louis, Mo.), 1 μl of anti-VS antibody (Catalog No. MCA2895, AbD Serotec, Kidlington, UK) and 2 μl of anti-Myc antibody (Catalog No. 05-419, Millipore, Bedford, Mass.) at 4° C., and allowed the mixture to react overnight. Twenty microliter of rabbit or mouse IgG was used in the control group. The protein A or G magnetic beads ([…], 50% slurry, GE Healthcare, Barrington, IL) were added to the IP reaction product to catch the immune complex at 4° C. for 3 h. The immune complex on beads were washed three times with washing buffer containing 20 mM HEPES (pH 7.4), 150 mM NaCl, 1 mM EDTA, 1% IGEPAL CA-630, 1 mM DTT, 50 mM β-glycerophosphate, 50 mM NaF, 10 mg/ml PMSF, 4 µg/ml aprotinin, 4 μg/ml leupeptin and 4 μg/ml pepstatin, and then subject to 8% SDS-PAGE followed by transferring onto the Nitrocellulose (NC) membrane (GE Healthcare). […] The protein bands were quantified by using the NIH Image J Software. […]
In general terms: In western blotting, separated proteins are transferred to a membrane and probed.

Data set [2] concerns MeCP2 SUMOylation. In words: In vitro SUMOylation assay for CA1 tissue. On the procedure: Hippocampal CA1 tissue lysate was prepared in the same way as that prepared for western blot. For immunoprecipitating the MeCP2, the clarified lysate (0.5 mg) was immunoprecipitated with 3 μl of anti-MeCP2 antibody (Catalog No. 3456, Cell Signaling) at […] overnight. The protein A agarose beads ([…], 50% slurry, GE Healthcare, Barrington, Ill.) were added to the IP reaction product to catch the immune complex at […] for 3 h. The immune complex on beads were washed three times with washing buffer containing 20 mM HEPES (pH 7.4), 150 mM NaCl, 1 mM EDTA, 1% IGEPAL CA-630, 1 mM DTT, 50 mM β-glycerophosphate, 50 mM NaF, […] PMSF, […] and subject to in vitro SUMOylation reaction with the addition of recombinant PIAS1 protein (3 μl, Catalog No. BML-UW9960, Enzo Life
Sciences, Farmingdale, N.Y.), E1(1 μl), E2 (1 μl) and the SUMO1 (0.5 μl) proteins provided in the kit. In vitro SUMOylation assay was performed using the SUMO linkTM kit according to the manufacturer's instructions (Active Motif, Carlsbad, Calif.) and boiled in Laemmli sample buffer at 95° C. for 10 min. The in vitro SUMOylation product was subject to 8% SDS-PAGE followed by transferring onto the PVDF membrane (Millipore). The membrane was immunoblotted with anti-MeCP2 antibody (1:1000, Catalog No. 3456, Cell Signaling) or anti-SUMO1 antibody (1:4000, Catalog No. 40120, Active Motif). For determination of endogenous MeCP2 SUMOylation after PIAS1 siRNA transfection, no E1, E2, SUMO1 and PIAS1 proteins were added to the IP reaction product. The remaining procedures were the same as that for carrying out the in vitro SUMOylation assay.
Rats were anesthetized with pentobarbital (40 mg/kg) and subject to stereotaxic surgery. Two 23-gauge, stainless-steel, thin-wall cannulae were implanted bilaterally to the CA1 area of rat brain at the following coordinates: 3.5 mm posterior to the bregma, ±2.5 mm lateral to the midline and 3.4 mm ventral to the skull surface. After recovery from the surgery, NMDA (2 μg/μl), IGF-1 (100 ng/ml), CRF (100 ng/μl) and dexamethasone (30 ng/μl) were directly injected to the CA1 area at a rate of 0.1 μl/min. A total of 0.7 μl was injected to each side. For transient Mecp2 plasmid DNA transfection, 0.7 μg/μl plasmid DNA complex ([…]) was injected directly to CA1 area bilaterally in the rat brain using the non-viral transfection agent polyethyleneimine (PEI). Before injection, plasmid DNA was diluted in 5% glucose to a stock concentration of 2.77 μg/μl. Branched PEI of 25 kDa (Sigma, St. Louis, Mo.) was diluted to 0.1 M concentration in 5% glucose and added to the DNA solution. Immediately before injection, 0.1 M PEI was added to reach a ratio of PEI nitrogen per DNA phosphate equals to 10. […]

Data set [3] deals with PIAS1. In words: PIAS1 expression in CA1 area (western blot). The following applies: siRNA 8 pmol; FIG. 2h lower panel. On the procedure:
as §1

Where no end group is shown, it is not given here.

In the case of `CN[C@H](CC(=O)O)C(=O)O` [NMDA, N-methyl-D-aspartate], the “phosphorylation level of MeCP2 at Ser-421” value in data set [1] (NMDA 2 μg/μl injected to CA1 area, FIG. 3b) is “increased the phosphorylation level of MeCP2 at Ser-421”. Besides, the “level of MeCP2 SUMOylation” value in data set [2] (NMDA 2 μg/μl injected to CA1 area, 1 hr, vs Flag-vector + PBS, FIG. 3b) was “increased the level of MeCP2 SUMOylation”.
Regarding “CRF: Corticotropin-releasing factor, purchased from Sigma-Aldrich (SEEPPISLDLTFHLLREVLEMARAEQLAQQAHSNRKLMEII; ends and bridges not checked; UniProt P06850 154-194, looked up)”, the “level of MeCP2 SUMOylation” value in data set [2] (CRF injected to CA1 area, 1 hr later, vs PBS, FIG. 3d) is reported as “markedly increased the level of MeCP2 SUMOylation”.
Take “IGF-1: Insulin-like growth factor-1, purchased from Sigma-Aldrich”: in data set [1] (IGF-1 100 ng/ml injected to CA1 area, FIG. 3c), the “phosphorylation level of MeCP2 at Ser-421” value is “increased the phosphorylation level of MeCP2 at Ser-421”. The “level of MeCP2 SUMOylation” value in data set [2] (IGF-1 100 ng/ml injected to CA1 area, 1 hr later, vs PBS, FIG. 3c) is listed as “significantly increased the level of MeCP2 SUMOylation”.
Consider “PIAS1 siRNA: siRNA against PIAS1, SEQ ID NO: 18 and 19 (chain 1 UCCGGAUCAUUCUAGAGCUTT; chain 2 AGCUCUAGAAUGAUCCGGATT; chemistry not given here)”, for which, in data set [3], the “PIAS1 expression in CA1 area” value is reported as “decreased PIAS1 expression”. Further, the “level of endogenous MeCP2 SUMOylation” value in data set [2] (siRNA 8 pmol to CA1 area, 48 hrs later, vs control siRNA, FIG. 2g, 2h) is given as “significantly decrease the level of endogenous MeCP2 SUMOylation”.
